Measurements reported in patent publication US4328242A, “α-(3,4,5-Trimethoxyhenzoyl)thiopropionyl-glycine” (Ausoria Farmaceutici S.r.l., priority 1980, dated 1982).
Like-named read-outs stand apart in the source and are kept apart here.

Tests used:
rats [1] = assay: Regenerative action in partial hepatectomy; assay type: in vivo; details: partial hepatectomy (70% excision), 200 and 400 mg/kg oral, six days
anaesthesized cats = assay: Pharmacodynamics in anaesthesized cats; assay type: in vivo; details: up to 50 mg/kg intravenously
[2] = test system: albino Sprague-Dawley rats; assay: Toxicity in the fetus, rats; assay type: in vivo; details: daily oral and subcutaneous, 250 and 500 mg/kg, four weeks prior to coupling and twenty days of gestation
Source text: Toxicity in the fetus of TBPG has been studied in albino Sprague-Dawley rats and in New Zealand rabbits. In the case of rats both male and female, the treatment has been initiated four weeks prior to coupling and then has been continued only in the females during the twenty days of gestation.
In the case of female rabbits, the treatment has been carried out during the twenty eight days of gestation.

rats [3] = assay: Bronchosecretolithic activity in rats (sodium fluorescine method); assay type: in vivo; details: 300 mg/kg intraperitoneally
Description: The secretolithic activity of TBPG has been determined in comparison to α-mercaptopropionylglycine by administering 300 mg/kg of the substance intraperitonally and comparing with 135 mg/kg of α-mercaptopropionylglycine administered also intraperitoneally. The doses are equimolar. The method is based on the use of sodium fluorescine described by H. M. Mawatari (Experimental Studies on the Expectorant Action of Several Drugs, Kogoshima Daigakeu Igakeu Zasshi 27, 561, 1976).

Acute toxicity in mice = assay type: in vivo; details: mouse, in vivo; for mortality at 240 h: read-out: % Death; for LD50 at 240 h: 10 days observation, probits, read-out: DL50 mg/kg (Confidential Limits)
Mice = assay: Acute toxicity in mice; assay type: in vivo; details: 20 tested
dogs = assay: Chronic toxicity in dogs; assay type: in vivo; details: 24 weeks, 125 and 250 mg/kg oral, 200 mg/kg by inhalation
Description: The chronic toxicity of TBPG has been investigated in rats and dogs treated for a period of 24 weeks with 125 mg/kg and 250 mg/kg by the oral route and 200 mg/kg by inhalation.

[4] = target: T1, glutathione peroxidase (GSHP) (Homo sapiens, UniProt P07203); assay: Action on the glutathione peroxidase (GSHP); assay type: biochemical; details: system glutathione/NADPH/GSH-reductase/cumene hydroperoxide; read-out: apparent Ki
T1 sequence (P07203 1-203): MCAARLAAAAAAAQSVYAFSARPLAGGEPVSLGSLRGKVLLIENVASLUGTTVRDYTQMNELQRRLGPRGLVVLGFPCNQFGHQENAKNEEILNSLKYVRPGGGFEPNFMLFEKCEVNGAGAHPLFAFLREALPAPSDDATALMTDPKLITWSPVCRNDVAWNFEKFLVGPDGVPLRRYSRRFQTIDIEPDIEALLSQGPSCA
Source text: The experiment has been carried out for the purpose of determining the inhibitory activity if any of TBPG with respect to GSHP, an enzyme well known connected with phlogistic processes.
The results have been obtained using the system glutathione/NADPH/GSH-reductase/cumene hydroperoxide and have shown that TBPG is capable of exerting an inhibitory activity on GSHP with an apparent Ki 5.4.10^-3 molar.

guinea pigs = assay: Antibronchospastic activity, histamine aerosol; assay type: in vivo; details: oral, rectal or inhalation, 200 and 400 mg/kg
Source text: Histamine administered in the form of an aerosol has caused in guinea pigs symptoms of broncho-spasm accompanied by convulsions, irreversible collapse and death.

rats [5] = assay: Protective activity of the liver in the intoxication caused by CCl4 (BSF elimination); assay type: in vivo; details: rats intoxicated with CCl4; 200 and 400 mg/kg orally, 14 days; BSF 10 mg/kg i.v. on day 15; proportionate to the dosage
Description: The animals, that is rats, were intoxicated with CCl4 for a period of seven days. They were treated during the same days and for a subsequent period of seven days with TBPG in the dose of 200 and 400 mg/kg orally and with α-mercaptopropionylglycine in the dose of 90 and 180 mg/kg orally. On the fifteenth day, the rats have been treated with BSF in the amount of 10 mg/kg intravenously.

In the case of `COc1cc(C(=O)SC(C)C(=O)NCC(=O)O)cc(OC)c1OC` (stereo not drawn) [TBPG, α-(3,4,5-trimethoxybenzoyl)thiopropionylglycine], the “regeneration of the hepatic tissue” value (rats [1]) is reported as “favoring the regeneration of the hepatic tissue in statistically significant manner”, the arterial pressure (anaesthesized cats) is reported as “low and temporary reduction” and the “cardiac frequency, respiratory dynamics and electrocardiogram” value (anaesthesized cats) is reported as “without any effect”. For the same compound, the tolerance (anaesthesized cats) was “very high tolerance”, the “toxicity in the fetus (deformation, number and weight of living offspring)” value [2] was “has not induced any deformation in the fetus and has not affected the number and the weight of the living offspring” and the bronchosecretolithic activity (rats [3]) was 34.4%. The mortality at 240 h (Acute toxicity in mice; ip, 1500 mg/kg) was 0%, the mortality at 240 h (Acute toxicity in mice; ip, 2000 mg/kg) was 40% and the mortality at 240 h (Acute toxicity in mice; ip, 2500 mg/kg) was 50%. For the same compound, the mortality at 240 h (Acute toxicity in mice; ip, 3000 mg/kg) was 65%, the mortality at 240 h (Acute toxicity in mice; ip, 3500 mg/kg) was 90% and the LD50 at 240 h (Acute toxicity in mice; ip, 95% limits (2192-2963)) was 2530 mg/kg. For the same compound, the mortality at 240 h (Acute toxicity in mice; po, orally, 3000 mg/kg) was 5%, the mortality at 240 h (Acute toxicity in mice; po, orally, 4000 mg/kg) was 30% and the mortality at 240 h (Acute toxicity in mice; po, orally, 5000 mg/kg) was 50%. It also gave a mortality at 240 h (Acute toxicity in mice; po, orally, 6000 mg/kg) of 75%, a mortality at 240 h (Acute toxicity in mice; po, orally, 7000 mg/kg) of 90% and an LD50 at 240 h (Acute toxicity in mice; po, orally, 95% limits (4539-5254)) of 4860 mg/kg. For the same compound, the “No. of Animals Dead” value (Mice; i.p., 1500 mg/kg) was 0, the “No. of Animals Dead” value (Mice; i.p., 2000 mg/kg) was 8 and the “No. of Animals Dead” value (Mice; i.p., 2500 mg/kg) was 10. The “No. of Animals Dead” value (Mice; i.p., 3000 mg/kg) was 13, the “No. of Animals Dead” value (Mice; i.p., 3500 mg/kg) was 18 and the “No. of Animals Dead” value (Mice; orally, 3000 mg/kg) was 1. The “No. of Animals Dead” value (Mice; orally, 4000 mg/kg) was 6, the “No. of Animals Dead” value (Mice; orally, 5000 mg/kg) was 10 and the “No. of Animals Dead” value (Mice; orally, 6000 mg/kg) was 15. The “No. of Animals Dead” value (Mice; orally, 7000 mg/kg) was 18, the “chronic toxicity (symptoms, behavior, deaths, body growth, hematology, hepatic and renal functions, organs)” value (dogs) was “totally innocuous” and the Ki [4] was 5.4 mM. The “period of time between administration of the histamine aerosol and appearance of bronchospastic symptoms” value (guinea pigs) was “increased very substantially” and the “elimination of BSF (hematic concentrations)” value (rats [5]) was “favors the elimination of BSF in a statistically significant manner”.
